Like-named read-outs stand apart in the source and are kept apart here.
How the values were obtained:
[1] = test system: human transplanted pancreatic adenocarcinomas; conditions: in vivo; cited from earlier work
[2] = test system: skin of SKH1 hairless mice; assay: Sunburn (erythema) prevention by terpenes with solar-spectrum UVR exposure; type: in vivo, mouse; conditions: 4 daily 30 microL droplets before 15 minute exposure to 3.0 kJ/m2 UVR
Procedure: All experiments were performed with female hairless mice (SKH1) utilizing solar spectrum ultraviolet radiation (UVR). Each experiment was performed in triplicate including controls and UVR-exposed mice and included a total of 22 mice per experiment for a total of 66 mice. The protocol included untreated mice, UVR-irradiated mice as controls for the terpene treatments, UVR+terpene mice and terpene-only mice.
Four solar simulating FS-20 fluorescent lamps were used to deliver 3 kJ/m^2 measured by a calibrated International Light UV radiometer at the lamp distance between 20 to 24 cm. The UVR dose was selected to be just above the minimal erythemal dose for producing a ‘sunburn’ reaction in mouse skin (this is very similar to the minimal erythemal dose of fair-skinned humans).
Each terpene was given to each mouse per os (by mouth) in 15-30 μL droplets (˜15-30 μg) via micropipette once each day for 4 consecutive days prior to and/or subsequent to UVR exposure. Animals were observed and photographed every 24 hours for a period of 6-7 days after the irradiation. Each terpene was administered in pure form. […] The UVR exposure of 3 kJ/m^2 was delivered seven (7) days after the last dose was administered. The animals were observed and photographed. […] Liponeate, a triglyceride fraction of coconut oil was used as a diluent. Concentration 1, 10 and 100% were tested. […]

[3] = test system: epidermis (keratinocytes, keratin layer) of SKH1 hairless mice; assay: Histology of skin after terpene pre-feed and UVR; type: in vivo, mouse; conditions: for keratinocyte formation: ingestion, animal models
Procedure: Histopathological diagnosis was performed on the skin samples.
Animals for the histology and microarray analysis were euthanized 24 hours after 4 days of terpene pre-feed and the UVR exposure. Tissue samples from skin and other organs were frozen and prepared for histological diagnosis and for microarray analysis, which consisted of testing gene expression by utilizing Affymetrix mouse microarray chips containing about 39,000 transcripts with 45,101 probe sets.

[4] = test system: gene expression in mouse dorsal skin; assay: Affymetrix gene expression microarray of mouse skin after terpene and UVR; type: in vivo; conditions: for loricrin and vascular endothelial growth factor (VEGF) genes / matrix metalloproteinases: ingestion, animal models; for inflammation genes induced by UVR: per os daily for 4 days in 30 microL droplets prior to irradiation
Procedure: Animals for the histology and microarray analysis were euthanized 24 hours after 4 days of terpene pre-feed and the UVR exposure.
Gene expression microarray analysis was performed as follows: RNA was extracted from a 0.1 g sample of mouse skin and an equal quantity of keratinocytes by using the TRIZOL reagent (Invitrogen, Carlsbad, Calif., USA) according to the manufacture's instructions and 200 μg of total RNA was used for the isolation of poly A+ mRNA by using Oligotex mRNA mini columns (QIAGEN, Valencia, Calif., USA). The final centrifugation was performed after the incubation with 1/10 volume of 3.0 M NaOAc, 2.5 volumes of ethanol and 1 μl glycogen (Boehringer Mannheim GmbH, Mannheim, Germany) at −20° C. overnight. Then the pellet was resuspended in diethylpyrocarbonate (DEPC)-treated water. RNA was labeled with biotin and hybridized to a Mouse genome 430—2 GeneChip® microarray (Affymetrix, Inc. Santa Clara, Calif., USA). Data from the Affymetrix mouse expression array chip were imported into the BRB-ArrayTools Version 3.3.0 developed by the Biometric Research Branch of the U.S. National Cancer Institute for normalization and analysis. […] A value of P≦0.001 was chosen as statistically significant. […] For these calculations the entire list of genes on the Affymetrix (mouse 430—2) microarray was used as the reference list.
Mice were treated with either UVR or UVR+beta-damascenone, and samples of tissue were removed from the dorsal skin for RNA extraction and analysis on an Affymetrix Microarray System utilizing mouse whole genome array chips Affy 430—2. The UVR sample served as the control in this preliminary experiment.

[5] = in vivo; cited from earlier work
skin [6] = conditions: mouse, in vivo; cited from earlier work
skin [7] = conditions: guinea pig, in vivo; cited from earlier work
skin [8] = conditions: in vivo; cited from earlier work
skin [9] = conditions: in vivo; cited from earlier work; remark: listed apart in the source
breast cancer = conditions: rats, without any evidence of toxicity; cited from earlier work
[10] = at concentrations in normal strength grapefruit juice (approximately 0.0035%, or 35 ppm); cited from earlier work
[11] = test system: UVB-induced non-melanoma tumors; conditions: mouse, in vivo; cited from earlier work
melanoma cells = conditions: topical pretreatment but not post-treatment; cited from earlier work
colon cancer = conditions: rats, 8 mg/kg, p<0.01; cited from earlier work
[12] = test system: inflammation-relevant gene expression in rat skin; conditions: cited from earlier work

Compound: CC(C)=CCC/C(C)=C/CO [Geraniol]
- effectiveness against tumor growth relative to perillyl alcohol [1]: about 5 fold

Compound: C/C=C/C(=O)C1=C(C)C=CCC1(C)C [beta-damascenone]
- cutaneous inflammation and erythema associated with UVR exposure [2]: blocked
- keratinizing layer in the epidermis, terpene+UVR in comparison to UVR ([3]; histological observations): greatly increased
- keratinocyte formation [3]: increased keratinocyte formation
- significantly altered up-regulated category at level 4 of the Gene Ontology Tree ([4]; UVR+terpene relative to UVR only, p<0.05): epidermal cell differentiation
- loricrin and vascular endothelial growth factor (VEGF) genes [4]: upregulation
- matrix metalloproteinases [4]: downregulation
- inflammation genes induced by UVR [4]: blocked
- inflammation-relevant genes ([4]; terpene+UVR relative to UVR only): strongly down-regulated
- number of gene categories significantly down-regulated ([4]; terpene+UVR relative to UVR only, p<0.05): 13 categories
- LD50 [5]: greater than 2.0 g/kg
- skin irritation (skin [6]): No skin irritation
- skin irritation (skin [7]): No skin irritation
- skin irritation (skin [8]): No skin irritation
- phototoxicity or photoallergenity (skin [9]): No phototoxicity or photoallergenity

Compound: C=C(C)[C@H]1CC=C(C)CC1 [d-limonene]
- initiation of breast cancer (breast cancer): almost completely prevented

Compound: C=C(C)[C@@H]1CCC2=CC(=O)C[C@@H](C)[C@]2(C)C1 [nootkatone]
- cutaneous inflammation and erythema associated with UVR exposure [2]: blocked
- keratinocyte formation [3]: increased keratinocyte formation
- loricrin and vascular endothelial growth factor (VEGF) genes [4]: upregulation
- matrix metalloproteinases [4]: downregulation
- inflammation genes induced by UVR [4]: blocked
- toxicity [10]: does not appear to be toxic

Compound: C=C(C)[C@@H]1CC=C(CO)CC1 [perillyl alcohol]
- initiation of breast cancer (breast cancer): almost completely prevented
- UVB-induced non-melanoma tumors [11]: reduction
- levels of UV-induced reactive oxygen species (melanoma cells): markedly reduced

Compound: Oc1ccc(C=Cc2cc(O)cc(O)c2)cc1 [resveratrol]
- inhibition of colon cancer (colon cancer): 67%

Compound: vitamin A
- inflammation-relevant gene expression alterations caused by x-rays blocked [12]: about 80%
- gene expression in controls ([12]; unirradiated controls): no effect

— patent US8771652B2, “Methods of blocking ultraviolet radiation and promoting skin growth using terpenes and terpenoids” (New York University, priority 2009, dated 2014)
